Data: publication PMC7126891 (Bioorganic & Medicinal Chemistry, 2013)
Read-outs that look alike come from different tables or passages of the source.

What was measured:
[1] = molecular target: T1, SARS-CoV 3CL^pro (Severe acute respiratory syndrome coronavirus, UniProt P0C6X7); assay type: biochemical
[2] = molecular target: T1, SARS-CoV 3CL^pro
[3] = molecular target: T1, SARS-CoV 3CL^pro; test: biochemical; assay type: binding

## Oc1cc(O)cc(Oc2c(O)cc(O)c3c2Oc2c(O)cc(O)cc2O3)c1 [Compound 3, eckol]
[1]
  Cell-free trans-cleavage inhibition type: Competitive (8.2 ± 0.9)
  fold higher activity than triphloretol A (2): 20 fold
[2]
  SI (CC50/IC50): <1

## Oc1cc(O)c2oc3cc(O)c4oc5cc(O)cc(O)c5oc4c3oc2c1 [Compound 4, dioxinodehydroeckol]
[2]
  SI (CC50/IC50): >1.4

## Oc1cc(O)cc(Oc2c(Oc3c(O)cc(O)cc3O)cc(O)c3c2Oc2c(O)cc(O)cc2O3)c1 [Compound 5, 2-phloroeckol]
[1]
  Cell-free trans-cleavage inhibition type: Competitive (24.0 ± 1.5)
  fold increase of inhibitory activity versus 7-phloroeckol (6): ~3 fold
[2]
  SI (CC50/IC50): >1.8

## Oc1cc(O)cc(Oc2c(O)cc(O)c3c2Oc2c(O)cc(Oc4c(O)cc(O)cc4O)cc2O3)c1 [Compound 6, 7-phloroeckol]
[1]
  Cell-free trans-cleavage inhibition type: Competitive (19.3 ± 1.4)
[2]
  SI (CC50/IC50): >1.8

## Oc1cc(O)c(Oc2cc(O)cc(O)c2Oc2cc(O)cc(O)c2-c2c(O)cc(O)cc2O)c(O)c1 [Compound 7, fucodiphloroethol G]
[1]
  Cell-free trans-cleavage inhibition type: Competitive (63.5 ± 7.1)
[2]; African green monkey
  SI (CC50/IC50): >1.1

## Oc1cc(O)cc(Oc2c(O)cc(O)c3c2Oc2c(O)cc(Oc4c(O)cc(Oc5c(O)cc(O)c6c5Oc5c(O)cc(O)cc5O6)cc4O)cc2O3)c1 [Compound 8, dieckol]
[1]
  Cell-free trans-cleavage inhibition type: Competitive (2.4 ± 0.2)
[3]; read-out: association rate constant kon
  kon: 7.35e+07 M⁻¹ s⁻¹
[3]; read-out: dissociation rate constant koff
  koff: 0.000843 s⁻¹
[2]
  SI (CC50/IC50): >2.9

## Oc1cc(O)cc(Oc2c(O)cc(O)c3c2Oc2c(O)cc4oc5c(Oc6cc(O)cc(O)c6)c(O)cc(O)c5c4c2O3)c1 [Compound 9, phlorofucofuroeckol A]
[1]
  Cell-free trans-cleavage inhibition type: Competitive (10.6 ± 1.0)
[2]
  SI (CC50/IC50): >1.1
